Experimental data: patent US20230416227A1, “PLASMA KALLIKREIN INHIBITORS” (Merck Sharp & Dohme LLC, priority 2020, published 2023)

Biological target: T1, Human plasma kallikrein (Homo sapiens, UniProt P03952)
T1 construct: yields a heavy chain (371 amino acids) and a light chain (248 amino acids); purchased Enzyme Research Laboratories
Assay: Plasma Kallikrein Assay
Type: biochemical
Conditions: purified Human plasma kallikrein 0.5 nM, substrate Acetyl-K-P-R-AFC, pH 7.4
Experimental: The effectiveness of a compound of the present invention as an inhibitor of plasma kallikrein can be determined using a relevant purified serine protease, and an appropriate synthetic substrate. The rate of hydrolysis of the chromogenic or fluorogenic substrate by the relevant serine protease was measured both in the absence and presence of compounds of the present invention. Assays were conducted at rt or at 37° C. […] A decrease in the rate of fluorescence change in the presence of inhibitor is indicative of enzyme inhibition. Such methods are known to one skilled in the art. The results of this assay are expressed as the half-maximal inhibitory concentrations (IC50), or the inhibitory constant, Ki.
Plasma kallikrein determinations were made in 50 mM HEPES buffer at pH 7.4 containing 150 mM NaCl, 5 mM CaCl2), and 0.1% PEG 8000 (polyethylene glycol; Fisher Scientific). […]
Times required to achieve equilibration between enzyme and inhibitor were determined in control experiments. The reactions were performed under linear progress curve conditions and fluorescence increase measured at 405 Ex/510 Em nm. […] IC50 was determined by inflection point from a four parameter logistic curve fit. Ki was calculated using the Cheng Prusoff equation, Ki=IC50/(1+([S]/Km)).

T1 sequence (P03952 391-638 limits assumed): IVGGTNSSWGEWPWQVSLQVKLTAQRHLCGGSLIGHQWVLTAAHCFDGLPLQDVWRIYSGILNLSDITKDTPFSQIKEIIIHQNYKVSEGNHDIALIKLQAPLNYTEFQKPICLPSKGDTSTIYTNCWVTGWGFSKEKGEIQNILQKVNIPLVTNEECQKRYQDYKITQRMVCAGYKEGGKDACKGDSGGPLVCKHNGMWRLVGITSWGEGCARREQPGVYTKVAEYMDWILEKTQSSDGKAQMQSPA
T1 sequence (P03952 20-390 partner limits assumed): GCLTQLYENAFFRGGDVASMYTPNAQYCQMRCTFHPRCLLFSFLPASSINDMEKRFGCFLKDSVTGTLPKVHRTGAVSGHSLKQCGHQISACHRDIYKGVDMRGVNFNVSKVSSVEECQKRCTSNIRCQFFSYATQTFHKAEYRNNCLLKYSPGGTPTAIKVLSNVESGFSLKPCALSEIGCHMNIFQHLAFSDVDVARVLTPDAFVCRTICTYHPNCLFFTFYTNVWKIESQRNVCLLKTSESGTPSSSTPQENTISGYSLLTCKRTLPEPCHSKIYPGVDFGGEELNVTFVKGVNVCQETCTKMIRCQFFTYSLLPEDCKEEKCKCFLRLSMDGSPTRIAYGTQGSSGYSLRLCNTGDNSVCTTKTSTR

An IC50 of 15.4 nM was found for `O=C(Nc1cnn(Cc2cnc(N3CCC3)nc2)c1)c1nc(-c2c(C(F)F)ccc(Cl)c2F)cnc1O` [Example 20, N-(1-((2-(Azetidin-1-yl)pyrimidin-5-yl)methyl)-1H-pyrazol-4-yl)-6-(3-chloro-6-(difluoromethyl)-2-fluorophenyl)-3-hydroxypyrazine-2-carboxamide] in this work.

An IC50 of 26.8 nM was found for `Cc1nc(N2CCC2)cnc1Cn1cc(NC(=O)c2cncc(-c3c(C(F)F)ccc(Cl)c3F)n2)cn1` [Example 24, N-(1-((5-(Azetidin-1-yl)-3-methylpyrazin-2-yl)methyl)-1H-pyrazol-4-yl)-6-(3-chloro-6-(difluoromethyl)-2-fluorophenyl)pyrazine-2-carboxamide] in this work.

An IC50 of 17.1 nM was found for `N#Cc1ccc(Cl)c(F)c1-c1cncc(C(=O)Nc2cnn(Cc3ccc(N4CCC4)nc3)c2)n1` [Example 52, N-(1-((6-(Azetidin-1-yl)pyridin-3-yl)methyl)-1H-pyrazol-4-yl)-6-(3-chloro-6-cyano-2-fluorophenvl)pyrazine-2-carboxamide] in this work.

An IC50 of 30.7 nM was found for `N#Cc1ccc(Cl)c(F)c1-c1cncc(C(=O)Nc2cnn(Cc3cnc(N4CCC4)nc3)c2)n1` [Example 53, N-(1-((2-(Azetidin-1-yl)pyrimidin-5-yl)methyl)-1H-pyrazol-4-yl)-6-(3-chloro-6-cyano-2-fluorophenyl)pyrazine-2-carboxamide] in this work.

An IC50 of 26.3 nM was found for `O=C(Nc1cnn(Cc2ccc(N3CC[C@@H]3CO)nc2)c1)c1cncc(-c2c(C(F)F)ccc(Cl)c2F)n1` [Example 68, (R)-6-(3-Chloro-6-(difluoromethyl)-2-fluorophenyl)-N-(1-((6-(2-(hydroxymethyl)azetidin-1-yl)pyridin-3-yl)methyl)-1H-pyrazol-4-yl)pyrazine-2-carboxamide] in this work.

An IC50 of 2.5 nM was found for `CC(c1cnc(N(C)CC(=O)N(C)C)nc1)n1cc(NC(=O)c2cncc(-c3c(C(F)F)ccc(Cl)c3F)n2)cn1` (stereo not drawn) [Example 72, 6-(3-Chloro-6-(difluoromethyl)-2-fluorophenyl)-N-(1-(1-(2-((2-(dimethylamino)-2-oxoethyl)(methyl)amino)pyrimidin-5-yl)ethyl)-1H-pyrazol-4-yl)pyrazine-2-carboxamide] in this work.

An IC50 of 5 nM was found for `O=C(Nc1cnn(Cc2cnc(N3CCC4OCCC43)nc2)c1)c1cncc(-c2c(C(F)F)ccc(Cl)c2F)n1` (stereo not drawn) [Example 75, 6-(3-Chloro-6-(difluoromethyl)-2-fluorophenyl)-N-(1-((2-(hexahydro-4H-furo[3,2-b]pyrrol-4-yl)pyrimidin-5-yl)methyl)-1H-pyrazol-4-yl)pyrazine-2-carboxamide] in this work.

An IC50 of 5.6 nM was found for `CC(c1cnc(N2Cc3cncnc3C2)nc1)n1cc(NC(=O)c2cncc(-c3c(C(F)F)ccc(Cl)c3F)n2)cn1` (stereo not drawn) [Example 78, 6-(3-Chloro-6-(difluoromethyl)-2-fluorophenyl)-N-(1-(1-(2-(5,7-dihydro-6H-pyrrolo[3,4-d]pyrimidin-6-yl)pyrimidin-5-yl)ethyl)-1H-pyrazol-4-yl)pyrazine-2-carboxamide] in this work.

An IC50 of 11.8 nM was found for `CC(c1cnc(N(CCO)Cc2ccccn2)nc1)n1cc(NC(=O)c2cncc(-c3c(C(F)F)ccc(Cl)c3F)n2)cn1` (stereo not drawn) [Example 85, 6-(3-Chloro-6-(difluoromethyl)-2-fluorophenyl)-N-(1-(1-(2-((2-hydroxyethyl)(pyridin-2-ylmethyl)amino)pyrimidin-5-yl)ethyl)-1H-pyrazol-4-yl)pyrazine-2-carboxamide] in this work.

An IC50 of 14.9 nM was found for `CN(C)CCN(CCO)c1ncc(Cn2cc(NC(=O)c3cncc(-c4c(C(F)F)ccc(Cl)c4F)n3)cn2)cn1` [Example 88, 6-(3-Chloro-6-(difluoromethyl)-2-fluorophenyl)-N-(1-((2-((2-(dimethylamino)ethyl)(2-hydroxyethyl)amino)pyrimidin-5-yl)methyl)-1H-pyrazol-4-yl)pyrazine-2-carboxamide] in this work.

An IC50 of 17.3 nM was found for `CC(c1cnc(N2Cc3ccncc3C2)nc1)n1cc(NC(=O)c2cncc(-c3c(C(F)F)ccc(Cl)c3F)n2)cn1` (stereo not drawn) [Example 89, 6-(3-Chloro-6-(difluoromethyl)-2-fluorophenyl)-N-(1-(1-(2-(1,3-dihydro-2H-pyrrolo[3,4-c]pyridin-2-yl)pyrimidin-5-yl)ethyl)-1H-pyrazol-4-yl)pyrazine-2-carboxamide] in this work.

An IC50 of 17.8 nM was found for `O=C(Nc1cnn(Cc2cnc(N3CC4C(C3)C4(F)F)nc2)c1)c1cncc(-c2c(C(F)F)ccc(Cl)c2F)n1` (stereo not drawn) [Example 90, 6-(3-Chloro-6-(difluoromethyl)-2-fluorophenyl)-N-(1-((2-(6,6-difluoro-3-azabicyclo[3.1.0]hexan-3-yl)pyrimidin-5-yl)methyl)-1H-pyrazol-4-yl)pyrazine-2-carboxamide] in this work.

An IC50 of 17.9 nM was found for `CCC(=O)C1C2CC2CN1c1ncc(Cn2cc(NC(=O)c3cncc(-c4c(C(F)F)ccc(Cl)c4F)n3)cn2)cn1` (stereo not drawn) [Example 91, 6-(3-Chloro-6-(difluoromethyl)-2-fluorophenyl)-N-(1-((2-(2-propionyl-3-azabicyclo[3.1.0]hexan-3-yl)pyrimidin-5-yl)methyl)-1H-pyrazol-4-yl)pyrazine-2-carboxamide] in this work.

An IC50 of 21.7 nM was found for `CC(c1cnc(N2CCN(C)C(=O)C2)nc1)n1cc(NC(=O)c2cncc(-c3c(C(F)F)ccc(Cl)c3F)n2)cn1` (stereo not drawn) [Example 95, 6-(3-Chloro-6-(difluoromethyl)-2-fluorophenyl)-N-(1-(1-(2-(4-methyl-3-oxopiperazin-1-yl)pyrimidin-5-yl)ethyl)-1H-pyrazol-4-yl)pyrazine-2-carboxamide] in this work.

An IC50 of 28.2 nM was found for `CN(C)CCN(C)c1ncc(Cn2cc(NC(=O)c3cncc(-c4c(C(F)F)ccc(Cl)c4F)n3)cn2)cn1` [Example 98, 6-(3-Chloro-6-(difluoromethyl)-2-fluorophenyl)-N-(1-((2-((2-(dimethylamino)ethyl)(methyl)amino)pyrimidin-5-yl)methyl)-1H-pyrazol-4-yl)pyrazine-2-carboxamide] in this work.

An IC50 of 41.3 nM was found for `CC(C)(O)CC1CCCN1c1ncc(Cn2cc(NC(=O)c3cncc(-c4c(C(F)F)ccc(Cl)c4F)n3)cn2)cn1` (stereo not drawn) [Example 106, 6-(3-Chloro-6-(difluoromethyl)-2-fluorophenyl)-N-(1-((2-(2-(2-hydroxy-2-methylpropyl)pyrrolidin-1-yl)pyrimidin-5-yl)methyl)-1H-pyrazol-4-yl)pyrazine-2-carboxamide] in this work.

An IC50 of 43.5 nM was found for `O=C(Nc1cnn(Cc2cnc(N3CCCC3C3(O)CC3)nc2)c1)c1cncc(-c2c(C(F)F)ccc(Cl)c2F)n1` (stereo not drawn) [Example 107, 6-(3-Chloro-6-(difluoromethyl)-2-fluorophenyl)-N-(1-((2-(2-(1-hydroxycyclopropyl)pyrrolidin-1-yl)pyrimidin-5-yl)methyl)-1H-pyrazol-4-yl)pyrazine-2-carboxamide] in this work.

An IC50 of 45 nM was found for `O=C(Nc1cnn(Cc2cnc(N3CCC4CC43)nc2)c1)c1cncc(-c2c(C(F)F)ccc(Cl)c2F)n1` (stereo not drawn) [Example 108, N-(1-((2-(2-Azabicyclo[3.1.0]hexan-2-yl)pyrimidin-5-yl)methyl)-1H-pyrazol-4-yl)-6-(3-chloro-6-(difluoromethyl)-2-fluorophenyl)pyrazine-2-carboxamide] in this work.

An IC50 of 45.9 nM was found for `O=C(Nc1cnn(Cc2cnc(N3CCCC3Cn3ccnc3)nc2)c1)c1cncc(-c2c(C(F)F)ccc(Cl)c2F)n1` (stereo not drawn) [Example 109, N-(1-((2-(2-((1H-Imidazol-1-yl)methyl)pyrrolidin-1-yl)pyrimidin-5-yl)methyl)-1H-pyrazol-4-yl)-6-(3-chloro-6-(difluoromethyl)-2-fluorophenyl)pyrazine-2-carboxamide] in this work.

An IC50 of 65.1 nM was found for `O=C(Nc1cnn(Cc2cnc(N3CCCC3CO)nc2)c1)c1cncc(-c2c(C(F)F)ccc(Cl)c2F)n1` (stereo not drawn) [Example 113, 6-(3-Chloro-6-(difluoromethyl)-2-fluorophenyl)-N-(1-((2-(2-(hydroxymethyl)pyrrolidin-1-yl)pyrimidin-5-yl)methyl)-1H-pyrazol-4-yl)pyrazine-2-carboxamide] in this work.

An IC50 of 2.7 nM was found for `CN(CCN1CCCC1)c1ccc(Cn2cc(NC(=O)c3cncc(-c4c(C(F)F)ccc(Cl)c4F)n3)cn2)cn1` [Example 114, 6-(3-Chloro-6-(difluoromethyl)-2-fluorophenyl)-N-(1-((6-(methyl(2-(pyrrolidin-1-yl)ethyl)amino)pyridin-3-yl)methyl)-1H-pyrazol-4-yl)pyrazine-2-carboxamide] in this work.

An IC50 of 3.5 nM was found for `O=C(Nc1cnn(Cc2ccc(N3CCCC3CCO)nc2)c1)c1cncc(-c2c(C(F)F)ccc(Cl)c2F)n1` (stereo not drawn) [Example 115, 6-(3-Chloro-6-(difluoromethyl)-2-fluorophenyl)-N-(1-((6-(2-(2-hydroxyethyl)pyrrolidin-1-yl)pyridin-3-yl)methyl)-1H-pyrazol-4-yl)pyrazine-2-carboxamide] in this work.

An IC50 of 3.6 nM was found for `NC(=O)[C@@H]1CCCN1c1ccc(Cn2cc(NC(=O)c3cncc(-c4c(C(F)F)ccc(Cl)c4F)n3)cn2)cn1` [Example 116, (S)-N-(1-((6-(2-Carbamoylpyrrolidin-1-yl)pyridin-3-yl)methyl)-1H-pyrazol-4-yl)-6-(3-chloro-6-(difluoromethyl)-2-fluorophenyl)pyrazine-2-carboxamide] in this work.

An IC50 of 5.4 nM was found for `O=C(Nc1cnn(Cc2ccc(N3CCC4OCCC43)nc2)c1)c1cncc(-c2c(C(F)F)ccc(Cl)c2F)n1` (stereo not drawn) [Example 117, 6-(3-Chloro-6-(difluoromethyl)-2-fluorophenyl)-N-(1-((6-(hexahydro-4H-furo[3,2-b]pyrrol-4-yl)pyridin-3-yl)methyl)-1H-pyrazol-4-yl)pyrazine-2-carboxamide] in this work.
